From US4353904A, “Phenylpiperazine derivatives of 1,3,4-oxadiazolylphenols, and therapeutic agents containing these compounds” (BASF Aktiengesellschaft, priority 1980, dated 1982) come the findings set out here.

The nature of data set [1]: Therapeutic range / therapeutic index (quotient of LD 50 and ED 20%). To be noted: in vivo; quotient of LD 50 (mouse i.p.) and ED 20% (rat i.v.). The source says: The therapeutic range is the quotient of the LD 50 and the ED 20%.
Data set [2] in a line: Acute toxicity, intraperitoneal administration. The settings on record: in vivo, ip, mouse, groups of 10 female NMRI mice, read-out: Toxicity LD 50. Here is the method:
In addition to the hypotensive action, the acute toxicity (LD 50, mg/kg), for intraperitoneal administration, was determined for groups of 10 female NMRI mice, weighing 22-27 g.
^(3) Mouse. Intraperitoneal

For another data set, the system named is blood pressure. Nature of the data set: Hypotensive action in rats under urethane narcosis (carotid artery blood pressure, intravenous administration). It is filed as in vivo, male Sprague-Dawley rats. The settings on record: rat; for ED20: iv, urethane narcosis 1.78 g/kg i.p., compound i.v. into jugular vein, read-out: Hypotensive action ED 20% (dose which caused a 20% reduction in blood pressure); for Hypotensive action R.A. (relative activity, Urapidil = 1.00): urethane narcosis, i.v., relative to Urapidil = 1.00. How it is done: Male Sprague-Dawley rats weighing 220-280 g were used, under urethane narcosis (1.78 g/kg, administered intraperitoneally) for the investigation. The blood pressure was measured directly in the carotid artery. The compound was administered intravenously into the jugular vein. The dose (mg/kg) which caused a 20% reduction in blood pressure was determined as the ED 20%. | ^(1) Rat. Urethane narcosis. Intravenous administration. | ^(2) Relative activity.

`COc1ccccc1N1CCN(CC(O)COc2ccccc2-c2nnc(C)o2)CC1` (stereo not shown) [Example 2]: in data set [1], the selectivity ratio was 2540. Also, the LD50 in data set [2] was found to be 56.2 mg/kg. Further, in the data set on blood pressure, the ED20 turned out to be 0.0221 mg/kg and the “Hypotensive action R.A. (relative activity, Urapidil = 1.00)” value worked out at 8.55.

In the case of `COc1ccccc1N1CCN(CCCNc2cc(=O)n(C)c(=O)n2C)CC1` [Urapidil, 6-{3-[4-(2-methoxyphenyl)-piperazin-1-yl]-propylamino}-1,3-dimethyluracil, reference compound], in data set [1], the selectivity ratio came out at 1920. In addition, the LD50 in data set [2] came to 362 mg/kg. In the data set with blood pressure, the ED20 amounted to 0.189 mg/kg and the “Hypotensive action R.A. (relative activity, Urapidil = 1.00)” value is 1.00.

Take `CCOc1ccccc1N1CCN(CC(O)COc2cccc(-c3nnc(C)o3)c2)CC1` (stereo not shown) [Example 12, 1-[3-(5-Methyl-1,3,4-oxadiazol-2-yl)-phenoxy]-3-[4-(2-ethoxyphenyl)-piperazin-1-yl]-propan-2-ol]: in data set [1], the selectivity ratio stood at 8300. The LD50 in data set [2] worked out at 162 mg/kg. Moreover, in the data set on blood pressure, the ED20 came out at 0.0195 mg/kg and the “Hypotensive action R.A. (relative activity, Urapidil = 1.00)” value is on record as 9.69.

As to `COc1ccccc1N1CCN(CC(O)COc2cccc(-c3nnco3)c2)CC1` (stereo not shown) [Example 7, 1-[3-(1,3,4-Oxadiazol-2-yl)-phenoxy]-3-[4-(2-methoxyphenyl)piperazin-1-yl]-propan-2-ol], the selectivity ratio in data set [1] turned out to be 2850. In addition, the LD50 in data set [2] worked out at 215 mg/kg. In addition, in the data set on blood pressure, the ED20 was 0.0754 mg/kg and the “Hypotensive action R.A. (relative activity, Urapidil = 1.00)” value amounted to 2.51.

In the case of `Cc1nnc(-c2cccc(OCC(O)CN3CCN(c4ccccc4Cl)CC3)c2)o1` (stereo not shown) [Example 16, 1-[3-(5-Methyl-1,3,4-oxadiazol-2-yl)-phenoxy]-3-[4-(2-chlorophenyl)-piperazin-1-yl]-propan-2-ol], the selectivity ratio in data set [1] was determined as 2490. Also, the LD50 in data set [2] amounted to 178 mg/kg. In addition, in the data set on blood pressure, the ED20 amounted to 0.0716 mg/kg and the “Hypotensive action R.A. (relative activity, Urapidil = 1.00)” value was 2.64.

Take `CCOc1ccccc1N1CCN(CC(O)COc2cccc(-c3nnco3)c2)CC1` (stereo not shown) [Example 9, 1-[3-(1,3,4-Oxadiazol-2-yl)-phenoxy]-3-[4-(2-ethoxyphenyl)-piperazin-1-yl]-propan-2-ol]: in data set [1], the selectivity ratio amounted to 25600. Further, the LD50 in data set [2] was found to be 215 mg/kg. Also, in the data set on blood pressure, the ED20 was found to be 0.0084 mg/kg and the “Hypotensive action R.A. (relative activity, Urapidil = 1.00)” value is reported as 22.50.

Consider `COc1ccccc1N1CCN(CC(O)COc2cccc(-c3nnc(C)o3)c2)CC1` (stereo not shown) [Example 10, 1-[3-(5-Methyl-1,3,4-oxadiazol-2-yl)-phenoxy]-3-[4-(2-methoxyphenyl)-piperazin-1-yl]-propan-2-ol], for which, in data set [1], the selectivity ratio turned out to be 6730. Further, the LD50 in data set [2] was determined as 224 mg/kg. Further, in the data set on blood pressure, the ED20 turned out to be 0.0333 mg/kg and the “Hypotensive action R.A. (relative activity, Urapidil = 1.00)” value was 5.68.
